From ChEMBL document CHEMBL1201862, “PubChem BioAssay data set” (2004)
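Exposure lasted 48 hours, with cells grown in 96-well plates and compounds tested at five concentrations. At the GI50, growth is halved.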 Active and inactive are the calls of the source. Rule as the data show it: active = GI50 up to about 1.1 µM and inactive = higher.

Columns and labels:
Assay in all cases: inhibition of tumour cell growth, NCI panel, 48 h
786-0 = tested on: 786-0
MCF7 = tested on: MCF7
COLO 205 = tested on: COLO 205
SNB-75 = tested on: SNB-75
NCI-H460 = tested on: NCI-H460
UO-31 = tested on: UO-31
SN12C = tested on: SN12C
EKVX = tested on: EKVX
MOLT-4 = tested on: MOLT-4
OVCAR-8 = tested on: OVCAR-8
SW-620 = tested on: SW-620
T47D = tested on: T47D
RXF 393 = tested on: RXF 393
IGROV-1 = tested on: IGROV-1
DU-145 = tested on: DU-145
SK-OV-3 = tested on: SK-OV-3
ACHN = tested on: ACHN
UACC-257 = tested on: UACC-257
HOP-62 = tested on: HOP-62
LOX IMVI = tested on: LOX IMVI

| Compound | GI50 (786-0) | GI50 (MCF7) | GI50 (COLO 205) | GI50 (SNB-75) | GI50 (NCI-H460) | GI50 (UO-31) | GI50 (SN12C) | GI50 (EKVX) | GI50 (MOLT-4) | GI50 (OVCAR-8) | GI50 (SW-620) | GI50 (T47D) | GI50 (RXF 393) | GI50 (IGROV-1) | GI50 (DU-145) | GI50 (SK-OV-3) | GI50 (ACHN) | GI50 (UACC-257) | GI50 (HOP-62) | GI50 (LOX IMVI) |
| --- | --- | --- | --- | --- | --- | --- | --- | --- | --- | --- | --- | --- | --- | --- | --- | --- | --- | --- | --- | --- |
| COc1cc(Cc2nccc3cc(OC)c(OC)cc23)c(/N=N/N(C)C)cc1OC | 4 µM (inactive) | 14.6 µM (inactive) | 14.4 µM (inactive) | 34 µM (inactive) | 7.23 µM (inactive) | 10 µM (inactive) | 14.3 µM (inactive) | 14.6 µM (inactive) | 5.27 µM (inactive) | 15.7 µM (inactive) | 7.94 µM (inactive) | 5.36 µM (inactive) | 2.99 µM (inactive) | 13.5 µM (inactive) | 17.5 µM (inactive) | 18.5 µM (inactive) | 15.1 µM (inactive) | 20.3 µM (inactive) | 23.7 µM (inactive) | – |
| O=S(=O)(Cc1cnc(O)nc1O)Cc1cnc(O)nc1O | > 100 µM (inactive) | > 100 µM (inactive) | > 100 µM (inactive) | > 100 µM (inactive) | > 100 µM (inactive) | > 100 µM (inactive) | > 100 µM (inactive) | > 100 µM (inactive) | > 100 µM (inactive) | > 100 µM (inactive) | > 100 µM (inactive) | > 100 µM (inactive) | > 100 µM (inactive) | > 100 µM (inactive) | > 100 µM (inactive) | – | > 100 µM (inactive) | > 100 µM (inactive) | – | > 100 µM (inactive) |
| C/C=C1/CN2CCC34C(=C(C(=O)OC)C1CC23)Nc1ccc(O)cc14 (configuration not stated) | 59.3 µM (inactive) | > 100 µM (inactive) | > 100 µM (inactive) | > 100 µM (inactive) | > 100 µM (inactive) | > 100 µM (inactive) | > 100 µM (inactive) | > 100 µM (inactive) | > 100 µM (inactive) | > 100 µM (inactive) | > 100 µM (inactive) | > 100 µM (inactive) | – | > 100 µM (inactive) | > 100 µM (inactive) | > 100 µM (inactive) | > 100 µM (inactive) | > 100 µM (inactive) | – | > 100 µM (inactive) |
| CCOC(=O)C(Cc1ccc(N(CCCl)CCCl)cc1)NC(=O)C(Cc1ccccc1)NC=O (configuration not stated) | 0.116 µM (active) | 0.143 µM (active) | 0.197 µM (active) | – | 0.261 µM (active) | 0.0689 µM (active) | 0.156 µM (active) | 0.332 µM (active) | 0.0289 µM (active) | 0.258 µM (active) | 0.184 µM (active) | 0.092 µM (active) | 0.0614 µM (active) | 0.0492 µM (active) | 0.139 µM (active) | 0.475 µM (active) | 0.00959 µM (active) | 0.24 µM (active) | 0.274 µM (active) | 0.0713 µM (active) |
| Cc1cc(NS(=O)(=O)c2ccc(Nc3c4ccccc4nc4c(C(=O)NC(CO)(CO)CO)cccc34)cc2)no1 | 34.4 µM (inactive) | 23.3 µM (inactive) | 42.4 µM (inactive) | 8.41 µM (inactive) | > 10 µM (inactive) | 48.6 µM (inactive) | 23.1 µM (inactive) | 73.6 µM (inactive) | 8.75 µM (inactive) | 49.7 µM (inactive) | 31 µM (inactive) | 26.5 µM (inactive) | – | 29 µM (inactive) | 48.1 µM (inactive) | 35.2 µM (inactive) | 32.7 µM (inactive) | 72.1 µM (inactive) | 25.1 µM (inactive) | 18.2 µM (inactive) |
| COc1cc(-c2c(C#N)c(N)c(C#N)c3c2COc2ccccc2-3)cc(OC)c1OC | 7.93 µM (inactive) | > 100 µM (inactive) | > 100 µM (inactive) | – | > 77.3 µM (inactive) | > 35.8 µM (inactive) | 25.9 µM (inactive) | 25.6 µM (inactive) | > 76.9 µM (inactive) | 28.6 µM (inactive) | > 100 µM (inactive) | > 46.9 µM (inactive) | 16.4 µM (inactive) | 26.7 µM (inactive) | 43.4 µM (inactive) | 14.6 µM (inactive) | 27.8 µM (inactive) | > 100 µM (inactive) | 7.5 µM (inactive) | 39.2 µM (inactive) |
